Results from patent publication US8481459B2, “Chemical inhibitors of ethylene biosynthesis” (Academia Sinica, priority 2010, dated 2013).

Test system: gene expression in etiolated eto1-4 seedlings
Experiment: Transcriptional profiling (ATH1 GeneChip microarray) of etiolated eto1-4 seedlings
Assay type: in vivo, Arabidopsis thaliana
Settings: ratio eto1-4 treated to eto1-4 (no treatment)
Protocol: For chemical treatments, seeds were sown on 0.5×MS agar medium supplemented with 10 μM chemicals (AVG, compounds 9393, 9370, and 7303) or DMSO (as control). Arabidopsis seeds were stratified in the dark at 4° C. for 4 days, then germinated in the dark for 3 days at 22° C. Approximately 2,000 etiolated seedlings of the wild type or eto1-4 were used to collect tissues for preparation of total RNA in each microarray experiment with Arabidopsis ATH1 GeneChip (Affymetrix). Extraction of RNA followed an established protocol (Chang, et al. (1993) Plant Mol. Biol. Rep. 11, 113-117). Total RNA (10 μg) was used to prepare biotinylated cRNA for hybridization to ATH1 GeneChip in the experiments disclosed herein. Experiments were repeated by 2 independent biological duplicates, and candidate genes present in both experiments were selected for further analysis. The MASS method was used for data analysis and normalization by all sample medium. Candidate genes were selected by the following criteria. First, genes with 1.5-fold differential expression between the wild type and eto1-4 were selected as the master gene pool, which was then used for comparison in treatments with AVG and individual exemplary compounds. Data were presented in hierarchical clustering and Venn diagram format. Agilent GeneSpring GX and Bioconductor software were used to analyze the expression profile data. Gene Ontology descriptions were generated by GeneSpring GX and further referred to the TAR GO database. Raw data are available in the GEO database (http://www.ncbi.nlm.nih.gov/geo) with Accession no. GSE20897.
The filtered and normalized expression data set from 22810 probes on the ATH1 Genechip was used for hierarchical clustering of gene expression profiles for comparison between AVG and the exemplary invention compounds in eto1-4. It was identified that 1,446 genes show at least 1.5-fold difference in expression between the WT and eto1-4 and used them as the master gene pool for clustering analysis (FIG. 7A). […] These genes likely contribute to the etiolated phenotype of eto1-4 by responding to elevated endogenous ethylene. To determine whether the exemplary compounds have specific r overlapping functions with AVG to suppress the eto1-4 phenotype, genes that are regulated by individual exemplary invention compounds and AVG for Venn diagram analysis were clustered (FIG. 7B). More than 63% of genes (356/561 for compound 9393; 389/561 for compound 9370; 399/561 for compound 7303; FIG. 7B) with expression associated with AVG were co-regulated by the exemplary invention compounds, which indicates an overlap function in suppression of the ethylene phenotype in eto1-4. […] Next genes co-regulated by all of the exemplary invention compounds and AVG were examined by performing a clustering analysis using the co-regulated genes identified in FIG. 7B: 356 (compound 9393 vs AVG), 389 (compound 9370 vs AVG) and 399 genes (compound 7303 vs AVG). It was uncovered that 276 genes were co-regulated by all of the exemplary invention compounds and AVG (FIG. 7C and Table 2). On the basis of GO descriptions generated by Gene Spring GX and TAIR database, the 276 genes were divided into subgroups related to their biological functions (Table 2). […] In addition, stress- and pathogenesis-related genes were among the co-regulated genes, possibly because ethylene is involved in both biotic and abiotic stresses.
Genes (1446 non-redundant loci) were selected by 1.5-fold differential expression between eto1-4 and WT as the master pool for analysis. These genes were used for comparison between chemical treatments by AVG and the exemplary invention compounds. The finalized 276 genes that are co-regulated by AVG and all of the exemplary invention compounds are shown. Locus ID also present in Nemhauser et al. (Nemhauser, et al. (2006) Cell 126, 467-475).

Cc1ccc(C2CC(=O)c3cnc(NC4CCCC4)nc3C2)cc1 (centres unmarked) [Compound 9370]
Signal Fold Change AT3G14850, unknown biological function: 0.20 | Signal Fold Change AT3G15890 protein kinase: 1.86 | Signal Fold Change AT3G16450 jacalin lectin protein: 2.54 | Signal Fold Change AT3G16470 jacalin lectin protein: 5.60 | Signal Fold Change AT3G16690, unknown biological function: 3.80 | Signal Fold Change AT3G17680, unknown biological function: 0.24 | Signal Fold Change AT3G20130 cytochrome P450: 1.73 | Signal Fold Change AT3G21770 peroxidase 30: 2.01 | Signal Fold Change AT3G22620 lipid transfer protein: 2.14 | Signal Fold Change AT3G23150 ethylene receptor, putative (ETR2): 0.16 | Signal Fold Change AT3G23800, unknown biological function: 0.40 | Signal Fold Change AT3G24670, unknown biological function: 0.32 | Signal Fold Change AT3G25710 bHLH protein: 2.47 | Signal Fold Change AT3G25730 AP2-containing transcription factor: 0.30 | Signal Fold Change AT3G25980 mitotic spindle checkpoint protein: 2.23 | Signal Fold Change AT3G27580 protein kinase: 0.56 | Signal Fold Change AT3G28290, unknown biological function: 0.18 | Signal Fold Change AT3G29250 short-chain dehydrogenase: 5.52 | Signal Fold Change AT3G30775 proline oxidase, mitochondrial: 3.13 | Signal Fold Change AT3G43270 pectinesterase protein: 0.20 | Signal Fold Change AT3G44820, response to light stimulus, phototropic-responsive NPH3 protein: 2.56 | Signal Fold Change AT3G44990 endo-xyloglucan transferase: 0.22 | Signal Fold Change AT3G45710 proton-dependent oligopeptide transport (POT) protein: 2.40 | Signal Fold Change AT3G46130 myb transcription factor (MYB48): 2.15 | Signal Fold Change AT3G46700 UDP-glucosyl transferase: 5.15 | Signal Fold Change AT3G47210, unknown biological function: 2.73 | Signal Fold Change AT3G47250, unknown biological function: 4.89 | Signal Fold Change AT3G49780 phytosulfokines 3 (PSK3): 7.46 | Signal Fold Change AT3G50660 steroid 22-alpha-hydroxylase: 4.00 | Signal Fold Change AT3G51410, unknown biological function: 0.32 | Signal Fold Change AT3G51970, unknown biological function: 2.88 | Signal Fold Change AT3G52180 protein tyrosine phosphatase: 0.25 | Signal Fold Change AT3G52920 expressed protein (defense response): 2.82 | Signal Fold Change AT3G53540, unknown biological function: 0.35 | Signal Fold Change AT3G56480, unknown biological function: 2.39 | Signal Fold Change AT3G58710 WRKY transcription factor: 2.65 | Signal Fold Change AT3G59370, unknown biological function: 2.99 | Signal Fold Change AT3G59710 short-chain dehydrogenase: 0.38 | Signal Fold Change AT3G59900, unknown biological function: 0.39 | Signal Fold Change AT3G60520, unknown biological function: 0.28 | Signal Fold Change AT3G61160 shaggy-related protein kinase beta/ASK-beta (ASK2): 3.86 | Signal Fold Change AT4G00730 anthocyaninless2: 0.54 | Signal Fold Change AT4G01410, unknown biological function: 0.27 | Signal Fold Change AT4G03140 short-chain dehydrogenase: 0.38 | Signal Fold Change AT4G08300, unknown biological function: 3.20 | Signal Fold Change AT4G09570 calcium-dependent protein kinase: 0.35 | Signal Fold Change AT4G10910, unknown biological function: 4.65 | Signal Fold Change AT4G11190 disease resistance-responsive protein: 9.98 | Signal Fold Change AT4G11280 ACC synthase 6: 2.29 | Signal Fold Change AT4G11310 cysteine proteinase: 9.04 | Signal Fold Change AT4G12080, unknown biological function: 2.05 | Signal Fold Change AT4G12410 auxin-responsive protein: 2.89 | Signal Fold Change AT4G12480 lipid transfer protein: 0.17 | Signal Fold Change AT4G13210, unknown biological function: 0.25 | Signal Fold Change AT4G15550 UDP-glucose:indole-3-acetate beta-D-glucosyltransferase: 0.28 | Signal Fold Change AT4G15920, unknown biological function: 17.08 | Signal Fold Change AT4G17220 expressed protein (cytoskeleton organization and biogenesis): 2.35 | Signal Fold Change AT4G18340 glycosyl hydrolase: 2.70 | Signal Fold Change AT4G23410 senescence-associated protein: 2.34 | Signal Fold Change AT4G25780, unknown biological function: 11.52 | Signal Fold Change AT4G26010 peroxidase: 0.38 | Signal Fold Change AT4G28085, unknown biological function: 4.84 | Signal Fold Change AT4G31000, unknown biological function: 0.61 | Signal Fold Change AT4G32920, unknown biological function: 2.35 | Signal Fold Change AT4G34560, unknown biological function: 1.85 | Signal Fold Change AT4G34760 auxin-responsive protein: 0.15 | Signal Fold Change AT4G35060 copper chaperone: 3.80 | Signal Fold Change AT4G35150, unknown biological function: 0.28 | Signal Fold Change AT4G36520, unknown biological function: 2.70 | Signal Fold Change AT4G37220 stress-responsive protein: 6.12 | Signal Fold Change AT4G38690, signal transduction, 1-phosphatidylinositol: 3.04 | Signal Fold Change AT4G39210 ADP-glucose pyrophosphorylase: 0.28 | Signal Fold Change AT4G39800 inositol-3-phosphate synthase isozyme 1: 2.08 | Signal Fold Change AT4G39840, unknown biological function: 0.29 | Signal Fold Change AT5G01210, unknown biological function: 0.31 | Signal Fold Change AT5G01300, unknown biological function: 1.40 | Signal Fold Change AT5G02260, cell wall organization and biogenesis, expansin (EXP9): 0.10 | Signal Fold Change AT5G02540 short-chain dehydrogenase: 0.12 | Signal Fold Change AT5G03160 DNAJ heat shock N-terminal domain-containing protein: 2.78 | Signal Fold Change AT5G04080, unknown biological function: 2.55 | Signal Fold Change AT5G05180, unknown biological function: 1.95 | Signal Fold Change AT5G06200, unknown biological function: 2.10 | Signal Fold Change AT5G08240, unknown biological function: 2.31 | Signal Fold Change AT5G08260 serine carboxypeptidase S10 protein: 0.38 | Signal Fold Change AT5G08370 alpha-galactosidase: 4.06 | Signal Fold Change AT5G09980 expressed protein (defense response): 0.38 | Signal Fold Change AT5G10720 sensory transduction histidine kinase: 0.32 | Signal Fold Change AT5G11540, unknown biological function: 5.68 | Signal Fold Change AT5G12170, response to cadmium ion, expressed protein: 0.34 | Signal Fold Change AT5G13870 endo-xyloglucan transferase: 0.11 | Signal Fold Change AT5G13910 AP2/EREBP-like transcription factor: 0.39 | Signal Fold Change AT5G14780 formate dehydrogenase: 0.35 | Signal Fold Change AT5G14920 gibberellin-regulated protein: 0.31 | Signal Fold Change AT5G15290, unknown biological function: 2.42 | Signal Fold Change AT5G15530 biotin carboxyl carrier protein 2: 0.38 | Signal Fold Change AT5G15830 bZIP transcription factor protein: 4.18 | Signal Fold Change AT5G18470, unknown biological function: 0.18 | Signal Fold Change AT5G18670 beta-amylase: 0.40 | Signal Fold Change AT5G18860, unknown biological function: 2.08 | Signal Fold Change AT5G18970, unknown biological function: 3.58 | Signal Fold Change AT5G19890 peroxidase: 0.08 | Signal Fold Change AT5G19930, unknown biological function: 1.64 | Signal Fold Change AT5G20410 monogalactosyldiacylglycerol synthase: 3.75 | Signal Fold Change AT5G22310, unknown biological function: 0.31 | Signal Fold Change AT5G22860 serine carboxypeptidase S28 protein: 3.54 | Signal Fold Change AT5G23750, unknown biological function: 4.16 | Signal Fold Change AT5G24870, unknown biological function: 2.17 | Signal Fold Change AT5G25140 cytochrome P450: 5.04 | Signal Fold Change AT5G25160 zinc finger (C2H2 type) protein: 3.03 | Signal Fold Change AT5G25190 ethylene-responsive element-binding protein: 0.40 | Signal Fold Change AT5G34940, unknown biological function: 0.46 | Signal Fold Change AT5G37300, unknown biological function: 3.03 | Signal Fold Change AT5G38930, unknown biological function: 0.24 | Signal Fold Change AT5G39860 bHLH protein: 3.46 | Signal Fold Change AT5G41900 hydrolase: 3.08 | Signal Fold Change AT5G44410, unknown biological function: 3.27 | Signal Fold Change AT5G44580, unknown biological function: 0.21 | Signal Fold Change AT5G46890 lipid transfer protein: 3.94 | Signal Fold Change AT5G47240, unknown biological function: 4.32 | Signal Fold Change AT5G47330 palmitoyl protein thioesterase protein: 3.02 | Signal Fold Change AT5G47450 major intrinsic protein: 2.71 | Signal Fold Change AT5G47950, unknown biological function: 2.55 | Signal Fold Change AT5G48490 lipid transfer protein: 12.97 | Signal Fold Change AT5G48900, unknown biological function: 0.48 | Signal Fold Change AT5G49900, unknown biological function: 2.96 | Signal Fold Change AT5G50720 ABA-responsive protein (HVA22e): 2.65 | Signal Fold Change AT5G52120 SKP1 interacting partner 3 protein: 7.26 | Signal Fold Change AT5G53190, unknown biological function: 6.92 | Signal Fold Change AT5G53830, unknown biological function: 0.39 | Signal Fold Change AT5G56320, cell wall organization and biogenesis, expansin (EXP14): 2.90 | Signal Fold Change AT5G58660, unknown biological function: 0.27 | Signal Fold Change AT5G59540 oxidoreductase: 0.40 | Signal Fold Change AT5G63450 cytochrome P450: 8.71 | Signal Fold Change AT5G63650 serine/threonine protein kinase: 0.33 | Signal Fold Change AT5G65970 seven transmembrane MLO protein: 2.88 | Signal Fold Change AT5G66310, microtubule-based movement, kinesin motor protein: 0.45 | Signal Fold Change AT5G66400 dehydrin (RAB18): 0.81 | Signal Fold Change AT5G66440, unknown biological function: 0.31 | Signal Fold Change AT5G66460 (1-4)-beta-mannan endohydrolase: 0.42 | Signal Fold Change AT5G66780, unknown biological function: 0.86
